Test results taken from US11479587B2, “Cationic intrinsically disordered antimicrobial peptides” (priority 2016, dated 2022).
Non-standard residues stand in square brackets, D forms with d. Residues, ends and D or L forms follow the SMILES beside them. No end group written: not given here. *: point of attachment. Palmitoyl = CCCCCCCCCCCCCCCC(=O)*; dOrn = NCCC[C@@H](N)C(=O)O

Assays:
[1] = Cytotoxicity (resazurin) assay
Procedure: For the cytotoxicity (resazurin) assay, HEK293 cells were counted manually in a Neubauer haemocytometer and plated at a density of 4000 cells/well into each well of the 384-well plates containing the 25×(2 μl) concentrated compounds. The medium used was Dulbecco's modified eagle medium (DMEM) supplemented with 10% foetal bovine serum (FBS). Cells were incubated together with the compounds for 20 h at 37° C., 5% CO2. To measure cytotoxicity, 5 μl (equals 100 μM final) resazurin was added to each well after incubation, and incubated for further 3 h at 37° C. with 5% CO2.
After final incubation fluorescence intensity was measured as F ex 560/10 nm, em 590/10 nm (F560/590) using a Tecan M1000 Pro monochromator plate reader. […] The concentration dependent percentage cytotoxicity was fitted to a dose response function (using Pipeline Pilot) and CC50 values determined.

Hemolysis assay = type: cell-based; conditions: for HC50 at 1 h: human, washed erythrocytes from EDTA-blood, pH 7.4
Procedure: For the hemolysis assays EDTA-blood was centrifuged at 800×g for 10 min, and the plasma and buffy coat were removed. The erythrocytes were washed three times and resuspended in 5% PBS, pH 7.4. The cells were then incubated with end-over-end rotation for 1 h at 37° C. in the presence of different concentrations of peptides (0, 3, 10, 30, 60 μm). 0.1% Triton X-100 (Sigma-Aldrich) served as positive control. The samples were then centrifuged at 800×g for 10 min.
The absorbance of hemoglobin release was measured at 540 nm and is expressed as % of Triton X-100-induced hemolysis. These values of triplicates were plotted with Graph Pad Prism 4 as a dose response curve and the CC50 was determined.

P. aeruginosa ATCC 10145 = test: CFU-assay, P. aeruginosa-cidal activity; type: cell-based, Pseudomonas aeruginosa
[2] = tested on: Candida albicans ATCC 24433; test: CFU-assay, Candida albicans-cidal activity; type: cell-based
Procedure: Thus, within the present invention, the antimicrobial activity is generally measured in nutrient deficient 10 mM sodium phosphate buffer pH 5.5, containing 0.25% glucose, using the CFU-assay according to Steinberg and Lehrer, 1997 (supra), unless otherwise indicated. The CFU-assay allows determination of the minimal bactericidal concentration (MBC, e.g., MBC90 and MBC100; i.e. the concentration of compound required to achieve a specified reduction in bacterial cell number (microbial death or killing)). […]
HR 1-17 affects C. albicans ATCC 24433 with highest activity at pH 5.5 in the absence of TSB in the medium (see Tables 12, 24). […] Furthermore, the substitution of any of the Arg residues by Gly leads to a dramatic reduction or loss of candidacidal activity (see Table 24).

CCCCCCCCCCCCCCCC(=O)NCC(=O)N[C@H](CCCN)C(=O)NCC(=O)N[C@H](CCCN)C(=O)O [D-Pal-GOrn4, D-Pal-GODGOD] (Palmitoyl-G[dOrn]G[dOrn]-OH)
CC50 [1]: > 32 µg/mL
HC50 (Hemolysis assay): 55 µg/mL

CCCCCCCCCCCCCCCC(=O)NCC(=O)N[C@H](CCCCN)C(=O)NCC(=O)N[C@H](CCCCN)C(=O)O [D-Pal-GK4, D-Pal-GKDGKD] (HELM PEPTIDE1{[CCCCCCCCCCCCCCCC(=O)[*:2]].G.[dK].G.[dK]}$$$$V2.0)
CC50 [1]: > 32 µg/mL
HC50 (Hemolysis assay): 40 µg/mL

HAHSGHGQSTQRGSRTAGR [FLG-22082-2100]
CC50 [1]: > 12.9 µM
HC50 at 1 h (Hemolysis assay): > 121 µM

NHHRRHHRCR [LCE3D55-64]
CC50 [1]: > 32 µg/mL

GRRGSGLGRSSSRGQRGSGSGR [HR 1-18 HR]
CC50 [1]: > 32 µg/mL
HC50 (Hemolysis assay): > 300 µg/mL

GRHGSGLGHSSSHGQHGSGSGGSSSRGPY (Modified peptide derived from human hornerin (HR 1-17 R2677G))
MBC90 (P. aeruginosa ATCC 10145; pH 5.0, 0.25% glucose): 0.0375 µg/mL
MBC100 (P. aeruginosa ATCC 10145; pH 5.0, 0.25% glucose): 0.15 µg/mL
MBC90 ([2]; pH 5.5, 1% TSB): 300 µg/mL
MBC100 ([2]; pH 5.5, 1% TSB): >300 µg/mL

GRRGGRGGRGRGR [GR13]
CC50 [1]: > 23.6 µM
HC50 at 1 h (Hemolysis assay): > 220 µM

HGSRSGQSSRGERHGSSSGSSSH (Peptide derived from human hornerin (HR 1-11))
MBC90 (P. aeruginosa ATCC 10145; pH 5.0, 0.25% glucose): 0.075 µg/mL
MBC100 (P. aeruginosa ATCC 10145; pH 5.0, 0.25% glucose): 2.35 µg/mL
MBC100 (P. aeruginosa ATCC 10145; pH 5.5, 0.25% glucose): 2.35 µg/mL
MBC90 (P. aeruginosa ATCC 10145; pH 5.5, 1% TSB): 2.35 µg/mL
MBC100 (P. aeruginosa ATCC 10145; pH 5.5, 1% TSB): >300 µg/mL
MBC90 ([2]; pH 5.5, 0.25% glucose): 9.38 µg/mL
MBC100 ([2]; pH 5.5, 0.25% glucose): 150 µg/mL

SHHRPRLFHRRRH [LCE2B74-86]
CC50 [1]: > 32 µg/mL
HC50 (Hemolysis assay): > 300 µg/mL

CCCCCCCCCCCCCCCC(=O)NCC(=O)N[C@@H](CCCN)C(=O)NCC(=O)N[C@@H](CCCN)C(=O)O [Pal-GOrn4, Pal-GOGO] (HELM PEPTIDE1{[CCCCCCCCCCCCCCCC(=O)[*:2]].G.[Orn].G.[Orn]}$$$$V2.0)
CC50 [1]: > 32 µg/mL
HC50 (Hemolysis assay): 80 µg/mL

HAHSGHGQSTQRGSRTAGRRGSGH (Peptide derived from human filaggrin-2 (FLG-2 2082-2105)) [FLG-22082-2105]
MBC90 (P. aeruginosa ATCC 10145; pH 5.5, 0.25% glucose): <0.075 µg/mL
MBC100 (P. aeruginosa ATCC 10145; pH 5.5, 0.25% glucose): 0.038 µg/mL
reduction of candidacidal activity at pH 7.2 versus pH 5.5 (fold) ([2]; pH 7.2 vs pH 5.5): ~50 fold

CCCCCCCCCCCCCCCC(=O)NCC(=O)N[C@H](CCCNC(=N)N)C(=O)N[C@H](CCCNC(=N)N)C(=O)NCC(=O)NCC(=O)N[C@H](CCCNC(=N)N)C(=O)NCC(=O)NCC(=O)N[C@H](CCCNC(=N)N)C(=O)O [D-Pal-GR9] (HELM PEPTIDE1{[CCCCCCCCCCCCCCCC(=O)[*:2]].G.[dR].[dR].G.G.[dR].G.G.[dR]}$$$$V2.0)
CC50 [1]: > 32 µg/mL
HC50 (Hemolysis assay): > 100 µg/mL
